From ChEMBL document CHEMBL4834492, “Targeting the KRAS G12D Mutant as Potential Therapy in Cancer” (ACS Med Chem Lett, 2021)

System: A-427
Experiment: Antiproliferative activity against human A427 cells expressing KRAS G12D mutant assessed as inhibition of cell growth measured after 3 days by CellTiter-Glo assay
Assay type: functional, cell-based
Details: A-427, 72 h

| Compound | IC50 [nM] |
| --- | --- |
| CN(C)CC1(COc2nc3c(c(N4CC5CCC(C4)N5)n2)CCN(c2cc(O)cc4cccc(I)c24)C3)CC1 | 580 |
| CN1C[C@H](F)C[C@H]1COc1nc2c(c(N3CC4CCC(C3)N4)n1)CCN(c1cc(O)cc3cccc(Br)c13)C2 | 650 |
| Cc1cccc2cc(O)cc(N3CCc4c(nc(OCC5(CN6CCOCC6)CC5)nc4N4CC5CCC(C4)N5)C3)c12 | 550 |
| Oc1cc(N2CCc3c(nc(OCC4(CN5CCOCC5)CC4)nc3N3CC4CCC(C3)N4)C2)c2c(I)cccc2c1 | 350 |
| Oc1cc(N2CCc3c(nc(OCC4(CN5CCOCC5)CC4)nc3N3CC4CCC(C3)N4)C2)c2c(Br)cccc2c1 | 590 |
| Oc1cc(N2CCc3c(nc(OCC4(CN5CC[C@@H](F)C5)CC4)nc3N3CC4CCC(C3)N4)C2)c2c(Br)cccc2c1 | 540 |
| Oc1cc(N2CCc3c(nc(OCC4(CN5CC[C@@H](F)C5)CC4)nc3N3CC4CCC(C3)N4)C2)c2c(I)cccc2c1 | 470 |
| CN(C)CC1(COc2nc3c(c(N4CC5CCC(C4)N5)n2)CCN(c2cc(O)cc4cccc(Br)c24)C3)CC1(F)F (centres undefined) | 540 |

Target: GTPase KRas (Homo sapiens, UniProt P01116, G12D)
Experiment: Inhibition of recombinant his-tagged KRAS G12D mutant (unknown origin) expressed in Escherichia coli BL21(DE3) assessed as inhibition of GDP-GTP exchange rate in presence of recombinant SOS1/GMPPNP incubated for 1 hr by BODIPY fluorescence assay
Details: not given

GTPase KRas, sequence (P01116 whole entry G12D): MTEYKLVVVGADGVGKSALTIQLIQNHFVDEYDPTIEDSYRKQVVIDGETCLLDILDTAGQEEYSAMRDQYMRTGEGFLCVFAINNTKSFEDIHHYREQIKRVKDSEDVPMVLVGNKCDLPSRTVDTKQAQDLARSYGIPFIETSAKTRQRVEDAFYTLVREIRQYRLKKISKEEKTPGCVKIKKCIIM

| Compound | IC50 [nM] |
| --- | --- |
| Oc1cc(N2CCc3c(nc(OCC4(CN5CCOCC5)CC4)nc3N3CC4CCC(C3)N4)C2)c2c(Br)cccc2c1 | 1.2 |
